Measured values taken from patent US8802597B2, “Herbicidal pyrimidines” (E I du Pont de Nemours and Company, priority 2003, dated 2014).
Where two headings read alike, the source gives them in different places.

How the values were obtained:
Test in all cases: Test C pre/postemergence
Format in all cases: in vivo
[1] = system: kochia (Kochia scoparia); conditions: Bassia scoparia, post-emergence, Postemergence
Outline: (§1)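 Test compounds, formulated in a non-phytotoxic solvent mix with surfactant, were applied to freshly planted seeds and, at the same time, to emerged plants at 1- to 4-leaf stage (2 to 18 cm). After 12 to 14 days in the greenhouse, response was scored visually versus controls, 0 = no effect, 100 = complete control.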

[2] = system: cocklebur (Xanthium strumarium); conditions: Xanthium strumarium; for pest or weed control at 62 g/ha: 62 g ai/ha; for pest or weed control at 125 g/ha: 125 g ai/ha; for pest or weed control at 250 g/ha: 250 g ai/ha; for pest or weed control at 500 g/ha: 500 g ai/ha
Outline: as §1

[3] = system: corn (Zea mays); conditions: Zea mays; for Corn plant response rating (crop injury, 0 = no effect, 100 = complete kill) at 62 g/ha: 62 g ai/ha; for Corn plant response rating (crop injury, 0 = no effect, 100 = complete kill) at 125 g/ha: 125 g ai/ha; for Corn plant response rating (crop injury, 0 = no effect, 100 = complete kill) at 250 g/ha: 250 g ai/ha; for Corn plant response rating (crop injury, 0 = no effect, 100 = complete kill) at 500 g/ha: 500 g ai/ha
Outline: as §1

[4] = system: eastern black nightshade (Solanum ptycanthum); conditions: Solanum, pre-emergence, Preemergence, read-out: Plant response rating, Nightshade
Outline: as §1

[5] = system: morningglory (Ipomoea coccinea); conditions: Ipomoea; for pest or weed control at 62 g/ha: 62 g ai/ha; for pest or weed control at 125 g/ha: 125 g ai/ha; for pest or weed control at 250 g/ha: 250 g ai/ha; for pest or weed control at 500 g/ha: 500 g ai/ha
Outline: as §1

[6] = system: Surinam grass (Brachiaria decumbens); conditions: Urochloa decumbens; for pest or weed control at 125 g/ha: 125 g ai/ha; for pest or weed control at 500 g/ha: 500 g ai/ha; for pest or weed control at 250 g/ha: 250 g ai/ha
Outline: as §1

[7] = system: johnsongrass (Sorghum halepense); conditions: Sorghum halepense; for pest or weed control at 62 g/ha: 62 g ai/ha; for pest or weed control at 125 g/ha: 125 g ai/ha; for pest or weed control at 250 g/ha: 250 g ai/ha; for pest or weed control at 500 g/ha: 500 g ai/ha
Outline: as §1

[8] = system: common (oilseed) sunflower (Helianthus annuus); conditions: Helianthus annuus, pre-emergence, Preemergence, read-out: Plant response rating, Sunflower
Outline: as §1

[9] = system: lambsquarters (Chenopodium album); conditions: Chenopodium album; for pest or weed control at 62 g/ha: 62 g ai/ha; for pest or weed control at 125 g/ha: 125 g ai/ha; for pest or weed control at 250 g/ha: 250 g ai/ha; for pest or weed control at 500 g/ha: 500 g ai/ha
Outline: as §1

[10] = system: giant foxtail (Setaria faberii); conditions: Setaria faberi; for pest or weed control at 125 g/ha: 125 g ai/ha; for pest or weed control at 500 g/ha: 500 g ai/ha; for pest or weed control at 62 g/ha: 62 g ai/ha; for pest or weed control at 250 g/ha: 250 g ai/ha
Outline: as §1

[11] = system: crabgrass (Digitaria sanguinalis); conditions: Digitaria sanguinalis; for pest or weed control at 62 g/ha: 62 g ai/ha; for pest or weed control at 125 g/ha: 125 g ai/ha; for pest or weed control at 250 g/ha: 250 g ai/ha; for pest or weed control at 500 g/ha: 500 g ai/ha
Outline: as §1

[12] = system: soybean (Glycine max); conditions: Glycine max; for plant injury at 62 g/ha: 62 g ai/ha; for plant injury at 125 g/ha: 125 g ai/ha; for plant injury at 250 g/ha: 250 g ai/ha; for plant injury at 500 g/ha: 500 g ai/ha
Outline: as §1

[13] = post-emergence, Postemergence, scale 0 to 100 (0 no effect, 100 complete control), read-out: Cocklebur plant response rating
[14] = post-emergence, Postemergence, scale 0 to 100, read-out: Plant response rating, Cocklebur
[15] = pre-emergence, Preemergence, scale 0 to 100, read-out: Plant response rating, Cocklebur
[16] = post-emergence, Postemergence, scale 0 to 100 (0 no effect, 100 complete control), read-out: Corn plant response rating
[17] = post-emergence, Postemergence, scale 0 to 100
[18] = pre-emergence, Preemergence, scale 0 to 100
[19] = 62 g ai/ha, scale 0 to 100, 0 no effect, 100 complete control
[20] = post-emergence, Postemergence, scale 0 to 100 (0 no effect, 100 complete control), read-out: Morningglory plant response rating
[21] = post-emergence, Postemergence, scale 0 to 100, read-out: Plant response rating, Morningglory
[22] = pre-emergence, Preemergence, scale 0 to 100, read-out: Plant response rating, Morningglory
[23] = post-emergence, Postemergence, scale 0 to 100, read-out: Plant response rating, Surinam Grass
[24] = pre-emergence, Preemergence, scale 0 to 100, read-out: Plant response rating, Surinam Grass
[25] = post-emergence, Postemergence, scale 0 to 100 (0 no effect, 100 complete control), read-out: Johnsongrass plant response rating
[26] = post-emergence, Postemergence, scale 0 to 100, read-out: Plant response rating, Johnsongrass
[27] = pre-emergence, Preemergence, scale 0 to 100, read-out: Plant response rating, Johnsongrass
[28] = post-emergence, Postemergence, scale 0 to 100 (0 no effect, 100 complete control), read-out: Lambsquarters plant response rating
[29] = post-emergence, Postemergence, scale 0 to 100, read-out: Plant response rating, Lambsquarters
[30] = pre-emergence, Preemergence, scale 0 to 100, read-out: Plant response rating, Lambsquarters
[31] = post-emergence, Postemergence, scale 0 to 100 (0 no effect, 100 complete control), read-out: Foxtail, Giant plant response rating
[32] = post-emergence, Postemergence, scale 0 to 100, read-out: Plant response rating, Foxtail, Giant
[33] = pre-emergence, Preemergence, scale 0 to 100, read-out: Plant response rating, Foxtail, Giant
[34] = post-emergence, Postemergence, scale 0 to 100 (0 no effect, 100 complete control), read-out: Crabgrass plant response rating
[35] = post-emergence, Postemergence, scale 0 to 100, read-out: Plant response rating, Crabgrass
[36] = pre-emergence, Preemergence, scale 0 to 100, read-out: Plant response rating, Crabgrass
[37] = post-emergence, Postemergence, scale 0 to 100 (0 no effect, 100 complete control), read-out: Soybean plant response rating
[38] = post-emergence, Postemergence, scale 0 to 100, read-out: Plant response rating, Soybean
[39] = pre-emergence, Preemergence, scale 0 to 100, read-out: Plant response rating, Soybean

## Nc1nc(C2CC2)nc(C(=O)OCc2ccccc2)c1Br [Compound 22, phenylmethyl 6-amino-5-bromo-2-cyclopropyl-4-pyrimidinecarboxylate]
[1]; 62 g ai/ha, scale 0 to 100 (0 no effect, 100 complete control), read-out: Kochia plant response rating
  pest or weed control at 62 g/ha: 95%
[1]; 125 g ai/ha, scale 0 to 100 (0 no effect, 100 complete control), read-out: Kochia plant response rating
  pest or weed control at 125 g/ha: 100%
[1]; 250 g ai/ha, scale 0 to 100, read-out: Plant response rating, Kochia
  pest or weed control at 250 g/ha: 100%
[1]; 500 g ai/ha, scale 0 to 100, read-out: Plant response rating, Kochia
  pest or weed control at 500 g/ha: 100%
[2]; [13]
  pest or weed control at 62 g/ha: 90%
  pest or weed control at 125 g/ha: 90%
[2]; [14]
  pest or weed control at 250 g/ha: 100%
  pest or weed control at 500 g/ha: 100%
[2]; pre-emergence, Preemergence, scale 0 to 100, 0 no effect, 100 complete control, read-out: Plant response rating, Cocklebur
  pest or weed control at 62 g/ha: 90%
[2]; [15]
  pest or weed control at 125 g/ha: 95%
  pest or weed control at 250 g/ha: 100%
  pest or weed control at 500 g/ha: 100%
[3]; [16]
  Corn plant response rating (crop injury, 0 = no effect, 100 = complete kill) at 62 g/ha: 30%
  Corn plant response rating (crop injury, 0 = no effect, 100 = complete kill) at 125 g/ha: 40%
[3]; [17]
  Corn plant response rating (crop injury, 0 = no effect, 100 = complete kill) at 250 g/ha: 60%
  Corn plant response rating (crop injury, 0 = no effect, 100 = complete kill) at 500 g/ha: 65%
[3]; pre-emergence, Preemergence, scale 0 to 100, 0 no effect, 100 complete control, read-out: Plant response rating, Corn
  Corn plant response rating (crop injury, 0 = no effect, 100 = complete kill) at 62 g/ha: 40%
[3]; pre-emergence, Preemergence, scale 0 to 100, read-out: Plant response rating, Corn
  Corn plant response rating (crop injury, 0 = no effect, 100 = complete kill) at 125 g/ha: 50%
[3]; [18]
  Corn plant response rating (crop injury, 0 = no effect, 100 = complete kill) at 250 g/ha: 65%
  Corn plant response rating (crop injury, 0 = no effect, 100 = complete kill) at 500 g/ha: 65%
[4]; [19]
  pest or weed control at 62 g/ha: 100%
[4]; 125 g ai/ha, scale 0 to 100
  pest or weed control at 125 g/ha: 100%
[4]; 250 g ai/ha, scale 0 to 100
  pest or weed control at 250 g/ha: 100%
[4]; 500 g ai/ha, scale 0 to 100
  pest or weed control at 500 g/ha: 100%
[5]; [20]
  pest or weed control at 62 g/ha: 90%
  pest or weed control at 125 g/ha: 90%
[5]; [21]
  pest or weed control at 250 g/ha: 95%
  pest or weed control at 500 g/ha: 100%
[5]; pre-emergence, Preemergence, scale 0 to 100, 0 no effect, 100 complete control, read-out: Plant response rating, Morningglory
  pest or weed control at 62 g/ha: 100%
[5]; [22]
  pest or weed control at 125 g/ha: 100%
  pest or weed control at 250 g/ha: 100%
  pest or weed control at 500 g/ha: 100%
[6]; post-emergence, Postemergence, scale 0 to 100 (0 no effect, 100 complete control), read-out: Surinam Grass plant response rating
  pest or weed control at 125 g/ha: 60%
[6]; [23]
  pest or weed control at 500 g/ha: 85%
  pest or weed control at 250 g/ha: 85%
[6]; post-emergence, Postemergence, 62 g ai/ha, scale 0 to 100 (0 no effect, 100 complete control), read-out: Surinam Grass plant response rating
  pest or weed control at 62 g/ha: 55%
[6]; [24]
  pest or weed control at 125 g/ha: 90%
  pest or weed control at 250 g/ha: 100%
  pest or weed control at 500 g/ha: 100%
[7]; [25]
  pest or weed control at 62 g/ha: 40%
  pest or weed control at 125 g/ha: 80%
[7]; [26]
  pest or weed control at 250 g/ha: 80%
  pest or weed control at 500 g/ha: 100%
[7]; pre-emergence, Preemergence, scale 0 to 100, 0 no effect, 100 complete control, read-out: Plant response rating, Johnsongrass
  pest or weed control at 62 g/ha: 80%
[7]; [27]
  pest or weed control at 125 g/ha: 100%
  pest or weed control at 250 g/ha: 100%
  pest or weed control at 500 g/ha: 100%
[8]; [19]
  pest or weed control at 62 g/ha: 90%
[8]; 125 g ai/ha, scale 0 to 100
  pest or weed control at 125 g/ha: 95%
[8]; 250 g ai/ha, scale 0 to 100
  pest or weed control at 250 g/ha: 100%
[8]; 500 g ai/ha, scale 0 to 100
  pest or weed control at 500 g/ha: 100%
[9]; [28]
  pest or weed control at 62 g/ha: 90%
  pest or weed control at 125 g/ha: 95%
[9]; [29]
  pest or weed control at 250 g/ha: 95%
  pest or weed control at 500 g/ha: 95%
[9]; pre-emergence, Preemergence, scale 0 to 100, 0 no effect, 100 complete control, read-out: Plant response rating, Lambsquarters
  pest or weed control at 62 g/ha: 100%
[9]; [30]
  pest or weed control at 125 g/ha: 100%
  pest or weed control at 250 g/ha: 100%
  pest or weed control at 500 g/ha: 100%
[10]; [31]
  pest or weed control at 125 g/ha: 45%
  pest or weed control at 62 g/ha: 40%
[10]; [32]
  pest or weed control at 500 g/ha: 60%
  pest or weed control at 250 g/ha: 50%
[10]; pre-emergence, Preemergence, scale 0 to 100, 0 no effect, 100 complete control, read-out: Plant response rating, Foxtail, Giant
  pest or weed control at 62 g/ha: 10%
[10]; [33]
  pest or weed control at 125 g/ha: 15%
  pest or weed control at 250 g/ha: 20%
  pest or weed control at 500 g/ha: 60%
[11]; [34]
  pest or weed control at 62 g/ha: 50%
  pest or weed control at 125 g/ha: 55%
[11]; [35]
  pest or weed control at 250 g/ha: 85%
  pest or weed control at 500 g/ha: 85%
[11]; pre-emergence, Preemergence, scale 0 to 100, 0 no effect, 100 complete control, read-out: Plant response rating, Crabgrass
  pest or weed control at 62 g/ha: 90%
[11]; [36]
  pest or weed control at 125 g/ha: 95%
  pest or weed control at 250 g/ha: 95%
  pest or weed control at 500 g/ha: 100%
[12]; [37]
  plant injury at 62 g/ha: 95%
  plant injury at 125 g/ha: 100%
[12]; [38]
  plant injury at 250 g/ha: 100%
  plant injury at 500 g/ha: 100%
[12]; pre-emergence, Preemergence, scale 0 to 100, 0 no effect, 100 complete control, read-out: Plant response rating, Soybean
  plant injury at 62 g/ha: 95%
[12]; [39]
  plant injury at 125 g/ha: 95%
  plant injury at 250 g/ha: 100%
  plant injury at 500 g/ha: 100%
